As a reminder, the MIC is the smallest concentration in the dilution series that meets the test's criterion for growth inhibition.

This note sets out measurements from patent US3966719A, “4-(Tetrazol-5-yl)-Δ^3 -cephem compounds” (Pfizer Inc., priority 1974, dated 1976).

Values after ≈ are worked out from the molar mass of the structure shown.

This test deals with Streptomyces pyogenes. The test is described as follows: antimicrobial test in nutrient broth, minimum concentration (MIC) at which growth failed to occur. It is filed as cell-based. The conditions noted are these: standardized conditions, read-out: In vitro MIC.
Turning to `CC1=C(c2nn[nH]n2)N2C(=O)C(NC(=O)Cn3cnnn3)C2SC1` (centres unmarked), the minimum inhibitory concentration (MIC) amounted to 6.2 µg/mL (≈ 17.8 µM). On to `Cn1nnnc1SCC1=C(c2nn[nH]n2)N2C(=O)C(NC(=O)Cc3cccs3)C2SC1` (centres unmarked), for which the MIC worked out at 0.1 µg/mL (≈ 0.21 µM). In the case of `Cn1nnnc1SCC1=C(c2nn[nH]n2)N2C(=O)C(NC(=O)[C@H](O)c3ccccc3)C2SC1` (stereo partly drawn) [7-D-(α-Hydroxy-α-phenylacetamido)-3-(1-methyltetrazol-5-ylthiomethyl)-4-(tetrazol-5-yl)-Δ^3-cephem] it was 3.12 µg/mL (≈ 6.41 µM); in that of `CC1=C(c2nn[nH]n2)N2C(=O)C(NC(=O)Cc3ccccc3)C2SC1` (centres unmarked) [C6H5CH2--, A = H, 7-Phenylacetamido-3-methyl-4-(tetrazol-5-yl)-Δ^3-cephem], 0.78 µg/mL (≈ 2.19 µM); in that of `CC1=C(c2nn[nH]n2)N2C(=O)C(NC(=O)C(N=[N+]=[N-])c3ccccc3)C2SC1` (centres unmarked) [C6H5CH(N3)--, A = H], 1.5 µg/mL (≈ 3.77 µM).

Turning to `CC1=C(c2nn[nH]n2)N2C(=O)C(NC(=O)COc3ccccc3)C2SC1` (centres unmarked) [C6H5OCH2--, A = H, 7-Phenoxyacetamido-3-methyl-4-(tetrazol-5-yl)-Δ^3-cephem], the MIC stood at 3.1 µg/mL (≈ 8.32 µM). On to `CC1=C(c2nn[nH]n2)N2C(=O)C(NC(=O)[C@H](N)c3ccc(O)cc3)C2SC1` (stereo partly drawn) [D--4-HOC6H4CH(NH2)--, A = H, 7-[D-α-Amino-α-(p-hydroxyphenyl)acetamido]-3-methyl-4-(tetrazol-5-yl)-Δ^3-cephem], for which the MIC turned out to be 1.5 µg/mL (≈ 3.87 µM). For the compound `CC1=C(c2nn[nH]n2)N2C(=O)C(NC(=O)[C@H](O)c3ccccc3)C2SC1` (stereo partly drawn) [D--C6H5CH(OH)--, A = H, 7-(D-α-Hydroxyphenylacetamido)-3-methyl-4-(tetrazol-5-yl)-Δ^3-cephem], the minimum inhibitory concentration (MIC) came out at 1.5 µg/mL (≈ 4.03 µM). On to `CC1=C(c2nn[nH]n2)N2C(=O)C(NC(=O)CSc3nnc(C)s3)C2SC1` (centres unmarked) [R1 not printed, A = H], for which the MIC is 0.78 µg/mL (≈ 1.9 µM). As to `CC1=C(c2nn[nH]n2)N2C(=O)C(NC(=O)Cc3cccs3)C2SC1` (centres unmarked) [R1 not printed, A = H], the MIC is 0.4 µg/mL (≈ 1.1 µM). In the case of `CC(=O)OCC1=C(c2nn[nH]n2)N2C(=O)C(NC(=O)Cc3cccs3)C2SC1` (centres unmarked) [R1 not printed, A = OCOCH3] it was 1.6 µg/mL (≈ 3.81 µM).
